A word on the ED50: it is the midpoint of the dose-response relation. A lower ED50 goes with an effect at a small dose.

Structures can show the parent of a compound that is named as a salt.

Format in all cases: in vivo
Data set [1] has as its system vertebral blood flow (VBF). Put plainly: Vertebral Blood Flow Increasing Activity (anesthetized dogs, intravenous). The settings on record: anesthetized mongrel dogs; for ED50: Canis lupus familiaris, iv, increase of VBF by 1 mg/kg papaverine hydrochloride regarded as 100%, 2-5 per group, test compounds as hydrochloride; for Cerebral vessel selectivity: ratio of percent increase of VBF to FBF (femoral blood flow), i.v. How it is done: Next, the pharmacological activity of typical compounds of this invention is explained in detail below.
- 1. Vertebral Blood Flow Increasing Activity
Mongrel dogs of both sexes weighing from 12 to 20 kg were anesthetized with sodium pentobarbital.
Vertebral blood flow (VBF) and femoral blood flow (FBF) were measured by an electromagnetic flowmeter (MFV-2100 and MFV-3100, Nihon Kohden).
Test compound solutions were injected intravenously in a volume of 0.2 ml/kg.
Also, the ratio of percent increase of VBF to FBF elicited by test compounds were indicated as an index of cerebral vessel selectivity.
The test compounds were dissolved in a physiological saline solution.
Thereafter, the resulting solution was diluted with a physiological saline solution to the desired concentration. Each study was carried out using 2-5 dogs per group.

Data set [2] relates to male ICR mice. Put plainly: Acute Toxicity. The settings on record: intravenous, 25 mg/kg, three male ICR mice per group. How it is done: (§1) Next, the pharmacological activity of typical compounds of this invention is explained in detail below. The compounds of this invention shown in Table 1 where subjected to the following test in the form of a hydrochloride to obtain the results shown in each test item.
A test compounds were intravenously administered to a group of three male ICR mice, weighing 20 to 26 g. The mortality was determined.
The test compounds were dissolved in a physiological saline solution. However, the test compound Nos. 7, 23 and 24 were dissolved in an aqueous solution containing 10% of dimethylsulfoxide and 10% of Cremophor EL and flunarizine was dissolved in 0.1M aqueous lactic acid solution.

Data set [3] relates to male ICR mice. Put plainly: Protective Effect against Hypobaric Hypoxia. The settings on record: Mus musculus, po, 2 h, 80 mg/kg orally, one or two hours before 210 mmHg, vehicle group (5% dimethylsulfoxide, 5% Cremophor EL) = 100, read-out: Survival time (ratio). How it is done: as §1
2. Protective Effect against Hypobaric Hypoxia
Each mouse was given 80 mg/kg of test compound orally one or two hours before the mice were placed under the hypobaric condition, and the survival time was measured.
The test compounds were dissolved in a physiological saline solution. However, the test compounds Nos. 7 and 23 were dissolved in an aqueous solution containing 5% of dimethylsulfoxide and 5% of Cremophor EL, and the control compound A (flunarizine) was dissolved in a 1.5% aqueous tartaric acid solution and then they were administered. Each study was carried out using 20 mice per group.
The protective effect against hypobaric hypoxide was determined as a ratio of the survival time of the group to which the test compounds was administered to that of the group to which an aqueous solution containing 5% of dimethylsulfoxide and 5% of Cremophor EL, the latter being indicated as 100.

Consider `COc1ccccc1/C=C/CN1CCN(C2c3ccccc3CCc3ccc([N+](=O)[O-])cc32)CC1` (stereo not shown) [compound 24], for which, in data set [1], the ED50 was determined as 0.35 mg/kg and the Cerebral vessel selectivity stood at 14.3. In addition, the mortality entry with male ICR mice [2] is recorded as “no death case was found”.

For the compound `C(=C\c1ccccc1)/CN1CCN(C2c3ccccc3CCc3cnccc32)CC1` (stereo not shown) [compound 2], in data set [1], the 50% effect level (ED50) was put at a dose of 0.34 mg/kg and the Cerebral vessel selectivity amounted to 8.8.

In the case of `O=[N+]([O-])c1cccc(/C=C/CN2CCN(C3c4ccccc4CCc4ncccc43)CC2)c1` (stereo not shown) [compound 14], in data set [1], it took a dose of 0.3 mg/kg to reach the 50% effect level (ED50) and the Cerebral vessel selectivity was 3.8. Besides, the response vs control in vivo at 80 mg/kg in the data set on male ICR mice [3] is 139%. Moreover, the mortality result with male ICR mice [2] is “no death case was found”.

Turning to `Fc1ccc(C(c2ccc(F)cc2)N2CCN(C/C=C/c3ccccc3)CC2)cc1` [Control compd. A, Flunarizine dihydrochloride, reference compound], in data set [1], the ED50 turned out to be 0.28 mg/kg and the Cerebral vessel selectivity amounted to 2.1. Besides, the response vs control in vivo at 80 mg/kg with male ICR mice [3] came to 61%. Further, the mortality result in the data set with male ICR mice [2] is on record as “no death case was found”.

With `Clc1cccc(/C=C/CN2CCN(C3c4ccccc4CCc4ncccc43)CC2)c1Cl` (stereo not shown) [compound 18], in data set [1], it took a dose of 0.3 mg/kg to reach the 50% effect level (ED50) and the Cerebral vessel selectivity is 10.4. Moreover, in the data set with male ICR mice [2], the mortality entry is listed as “no death case was found”.

In the case of `COc1ccc(/C=C/CN2CCN(C3c4ccccc4CCc4ncccc43)CC2)cc1[N+](=O)[O-]` (stereo not shown) [compound 10], in data set [1], the 50% effect level (ED50) was put at a dose of 0.17 mg/kg and the Cerebral vessel selectivity is 9.1. Moreover, the mortality result with male ICR mice [2] is listed as “no death case was found”.

As to `COc1ccc(/C=C/CN2CCN(C3c4ccccc4CCc4ncccc43)CC2)cc1OC` (stereo not shown) [compound 3], in data set [1], the 50% effect level (ED50) was put at a dose of 0.3 mg/kg and the Cerebral vessel selectivity worked out at 5.0. The response vs control in vivo at 80 mg/kg with male ICR mice [3] came to 136%. Further, the mortality result in the data set with male ICR mice [2] is listed as “no death case was found”.

For the compound `Clc1ccc(/C=C/CN2CCN(C3c4ccccc4CCc4ncccc43)CC2)cc1Cl` (stereo not shown) [compound 12], in data set [1], the ED50 amounted to 0.3 mg/kg and the Cerebral vessel selectivity stood at 5.6. Besides, the response vs control in vivo at 80 mg/kg in the data set with male ICR mice [3] was 129%. Also, the mortality entry in the data set with male ICR mice [2] is listed as “no death case was found”.

In the case of `O=[N+]([O-])c1ccc2c(c1)C(N1CCN(C/C=C/c3ccccc3)CC1)c1ccccc1SC2` (stereo not shown) [compound 25], in data set [1], the ED50 worked out at 0.28 mg/kg and the Cerebral vessel selectivity is reported as 10.6.

On to `COc1cc(/C=C/CN2CCN(C3c4ccccc4CCc4ncccc43)CC2)ccc1Oc1cccnc1` (stereo not shown) [compound 15], for which, in data set [1], the ED50 turned out to be 0.18 mg/kg and the Cerebral vessel selectivity is recorded as 4.6.

With `COc1ccccc1/C=C/CN1CCN(C2c3ccccc3CCc3ncccc32)CC1` (stereo not shown) [compound 4], in data set [1], the ED50 turned out to be 0.22 mg/kg and the Cerebral vessel selectivity worked out at 3.0.

For `C1=Cc2ncccc2C(N2CCN(C/C=C/c3ccccc3)CC2)c2ccccc21` (stereo not shown) [compound 22], in data set [1], the 50% effect level (ED50) was put at a dose of 0.15 mg/kg and the Cerebral vessel selectivity worked out at 5.4.

For the compound `Fc1ccc(/C=C/CN2CCN(C3c4ccccc4CCc4ncccc43)CC2)cc1F` (stereo not shown) [compound 13], the response vs control in vivo at 80 mg/kg with male ICR mice [3] was 148%. In the data set on male ICR mice [2], the mortality entry was “no death case was found”.

For `Clc1cccc(/C=C/CN2CCN(C3c4ccccc4CCc4ncccc43)CC2)c1` (stereo not shown) [compound 11], the response vs control in vivo at 80 mg/kg with male ICR mice [3] stood at 146%. In addition, the mortality result in the data set on male ICR mice [2] is “no death case was found”.

Take `O=[N+]([O-])c1cccc(/C=C/CN2CCN(C3c4ccccc4CCc4ccc([N+](=O)[O-])cc43)CC2)c1` (stereo not shown) [compound 26]: in data set [1], the ED50 is 0.28 mg/kg and the Cerebral vessel selectivity is reported as 4.4.

Take `O=[N+]([O-])c1ccc2c(c1)C(N1CCN(C/C=C/c3ccccc3)CC1)c1ccccc1CC2` (stereo not shown) [compound 23]: in data set [1], the 50% effective dose (ED50) stood at 0.32 mg/kg and the Cerebral vessel selectivity was 5.0. Moreover, the response vs control in vivo at 80 mg/kg in the data set on male ICR mice [3] came out at 205%. The mortality result with male ICR mice [2] is “no death case was found”.

On to `C(=C\c1cccc2ccsc12)/CN1CCN(C2c3ccccc3CCc3ncccc32)CC1` (stereo not shown) [compound 20], for which, in data set [1], it took a dose of 0.36 mg/kg to reach the 50% effect level (ED50) and the Cerebral vessel selectivity amounted to 4.1. For the same compound, in the data set with male ICR mice [3], the response vs control in vivo at 80 mg/kg amounted to 142%. Moreover, the mortality entry with male ICR mice [2] is “no death case was found”.

Consider `COc1ccc(/C=C/CN2CCN(C3c4ccccc4CCc4ncccc43)CC2)cc1Oc1ccccc1` (stereo not shown) [compound 7], for which, in data set [1], the ED50 amounted to 0.11 mg/kg and the Cerebral vessel selectivity was 16.7. Besides, in the data set with male ICR mice [3], the response vs control in vivo at 80 mg/kg is 158%. Also, in the data set with male ICR mice [2], the mortality result is reported as “no death case was found”.

In the case of `COc1ccc(/C=C/CN2CCN(C3c4ccccc4CCc4ncccc43)CC2)cc1N` (stereo not shown) [compound 17], in the data set on male ICR mice [3], the response vs control in vivo at 80 mg/kg stood at 143%. For the same compound, the mortality result in the data set on male ICR mice [2] was “no death case was found”.

For the compound `COc1ccc(/C=C/CN2CCN(C3c4ccccc4CCc4ncccc43)CC2)cc1Oc1cccnc1` (stereo not shown) [compound 16], in data set [1], the ED50 is 0.15 mg/kg and the Cerebral vessel selectivity came to 3.6.

For the compound `C(=C\c1ccc2sccc2c1)/CN1CCN(C2c3ccccc3CCc3ncccc32)CC1` (stereo not shown) [compound 19], in data set [1], the median effective dose (ED50) was 0.32 mg/kg and the Cerebral vessel selectivity amounted to 4.1. The response vs control in vivo at 80 mg/kg in the data set on male ICR mice [3] was 138%. Besides, in the data set on male ICR mice [2], the mortality result is reported as “no death case was found”.

Turning to `COc1ccc(/C=C/CN2CCN(C3c4ccccc4CCc4ncccc43)CC2)c(OC)c1OC` (stereo not shown) [compound 8], in data set [1], the ED50 is 0.14 mg/kg and the Cerebral vessel selectivity came to 4.5. For the same compound, in the data set on male ICR mice [2], the mortality entry is on record as “no death case was found”.

Regarding `C(=C\c1ccc2c(c1)OCO2)/CN1CCN(C2c3ccccc3CCc3ncccc32)CC1` (stereo not shown) [compound 9], in data set [1], the ED50 is 0.45 mg/kg and the Cerebral vessel selectivity was determined as 6.9. Further, the response vs control in vivo at 80 mg/kg in the data set on male ICR mice [3] worked out at 155%.

As for `C(=C\c1ccccc1)/CN1CCN(C2c3ccccc3CCc3ncccc32)CC1` (stereo not shown) [compound 1], the response vs control in vivo at 80 mg/kg in the data set with male ICR mice [3] was 180%. In the data set with male ICR mice [2], the mortality entry is reported as “no death case was found”.

Take `O=[N+]([O-])c1ccc(/C=C/CN2CCN(C3c4ccccc4CCc4ncccc43)CC2)cc1` (stereo not shown) [compound 6]: the response vs control in vivo at 80 mg/kg with male ICR mice [3] was determined as 135%. Moreover, the mortality result in the data set on male ICR mice [2] is “no death case was found”.

Turning to `COc1ccc(/C=C/CN2CCN(C3c4ccccc4CCc4ncccc43)CC2)cc1` (stereo not shown) [compound 5], in data set [1], it took a dose of 0.3 mg/kg to reach the 50% effect level (ED50) and the Cerebral vessel selectivity was determined as 8.8.

Take `O=[N+]([O-])c1cccc2c(/C=C/CN3CCN(C4c5ccccc5CCc5ncccc54)CC3)cccc12` (stereo not shown) [compound 21]: in data set [1], the 50% effect level (ED50) was put at a dose of 0.33 mg/kg and the Cerebral vessel selectivity is recorded as 3.4. In addition, in the data set with male ICR mice [2], the mortality result is reported as “no death case was found”.

The values are drawn from patent publication US4948796A, “Piperazine derivative or its salt, process for producing the same and pharmaceutical composition comprising the same as active ingredient” (Toyama Chemical Co., Ltd., priority 1988, dated 1990).
